Laboratory results: the supplement of paper PMC10307832

What was measured:
Experiment in all cases: relative viability (nuclei count vs DMSO), 5 days (fraction); higher = more cells survive
Venetoclax + Trametinib = compound: CC1(C)CCC(CN2CCN(c3ccc(C(=O)NS(=O)(=O)c4ccc(NCC5CCOCC5)c([N+](=O)[O-])c4)c(Oc4cnc5[nH]ccc5c4)c3)CC2)=C(c2ccc(Cl)cc2)C1 [Venetoclax] + CC(=O)Nc1cccc(-n2c(=O)n(C3CC3)c(=O)c3c(Nc4ccc(I)cc4F)n(C)c(=O)c(C)c32)c1 [Trametinib] (partner 0.02 µM)
In short: (§1)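 Medians of duplicate plates are given as relative viability. That measure is the nuclei count in treated wells divided by the count in vehicle wells. Counts were taken on 4× images of lung cancer cell lines in 1536-well plates, 5 days after pin-tool dosing the day after seeding with one drug alone or a fixed anchor-drug dose plus five library-drug doses (not always all listed) in √10 steps.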

Selumetinib + Navitoclax = compound: Cn1cnc2c(F)c(Nc3ccc(Br)cc3Cl)c(C(=O)NOCCO)cc21 [Selumetinib] + CC1(C)CCC(c2ccc(Cl)cc2)=C(CN2CCN(c3ccc(C(=O)NS(=O)(=O)c4ccc(N[C@H](CCN5CCOCC5)CSc5ccccc5)c(S(=O)(=O)C(F)(F)F)c4)cc3)CC2)C1 [Navitoclax] (partner 0.5 µM)
In short: as §1

Selumetinib = compound: Cn1cnc2c(F)c(Nc3ccc(Br)cc3Cl)c(C(=O)NOCCO)cc21 [Selumetinib]
In short: (§2)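 Cells of lung cancer lines were placed in 1536-well plates and kept overnight at 37 °C. Pinning then delivered five library-drug doses (not always all listed), spaced by √10, onto plates anchored with vehicle, and the cells were left 5 days without changing medium. One step fixed, permeabilised and stained them with Hoechst, and MetaXpress counted nuclei in 4× images. Viability, as a median over plates, is treated-well nuclei divided by vehicle-well nuclei, with acceptance only at control CV below 25% and at least one doubling.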

Venetoclax = compound: CC1(C)CCC(CN2CCN(c3ccc(C(=O)NS(=O)(=O)c4ccc(NCC5CCOCC5)c([N+](=O)[O-])c4)c(Oc4cnc5[nH]ccc5c4)c3)CC2)=C(c2ccc(Cl)cc2)C1 [Venetoclax]
In short: as §2

Cell Line	relative viability (Venetoclax + Trametinib; first compound 0.01 µM)	relative viability (Venetoclax + Trametinib; first compound 0.03162 µM)	relative viability (Venetoclax + Trametinib; first compound 0.1 µM)	relative viability (Venetoclax + Trametinib; first compound 0.3162 µM)	relative viability (Venetoclax + Trametinib; first compound 1 µM)	relative viability (Selumetinib + Navitoclax; first compound 0.02 µM)	relative viability (Selumetinib + Navitoclax; first compound 0.06325 µM)	relative viability (Selumetinib + Navitoclax; first compound 0.2 µM)	relative viability (Selumetinib + Navitoclax; first compound 0.6325 µM)	relative viability (Selumetinib; 0.02 µM)	relative viability (Selumetinib; 0.06325 µM)	relative viability (Selumetinib; 0.2 µM)	relative viability (Selumetinib; 0.6325 µM)	relative viability (Venetoclax; 0.01 µM)	relative viability (Venetoclax; 0.03162 µM)	relative viability (Venetoclax; 0.1 µM)	relative viability (Venetoclax; 0.3162 µM)	relative viability (Venetoclax; 1 µM)
SK-LU-1	0.585	0.512	0.522	0.507	0.587	0.795	0.791	1.24	0.268	1.07	0.904	0.8	0.484	0.953	1.16	0.991	1.01	1.02
EMC-BAC-2	0.915	0.965	0.887	0.857	0.906	0.964	0.989	1.07	1.06	1.38	1.16	1.06	1.13	0.977	1.14	0.945	1.15	0.96
LK-2	0.894	0.762	0.596	0.628	0.639	0.88	0.896	0.838	1.06	1.08	1.05	0.88	1.04	0.947	1.11	0.929	0.938	1.02
NCI-H23	0.441	0.427	0.365	0.346	0.346	0.851	0.827	0.672	0.63	1.05	0.78	0.758	0.674	1	1.06	0.85	1.07	0.877
NCI-H441	0.49	0.494	0.506	0.439	0.5	0.959	0.574	0.839	0.546	1.18	0.922	0.827	0.649	0.952	1.08	0.97	0.974	0.865
NCI-H1299	–	–	–	–	–	1.02	1.09	1.05	0.899	1.04	1.03	1.02	0.889	1.02	1.03	1.01	1.01	0.949
ABC-1	–	–	–	–	–	–	–	–	–	0.885	0.757	0.875	0.841	1.11	0.981	0.974	0.938	0.897
LCLC-103H	0.714	0.663	0.635	0.679	0.654	–	–	–	–	0.916	0.897	0.87	0.84	1.06	0.999	1.04	1.01	1
NCI-H1563	–	–	–	–	–	–	–	–	–	0.957	0.868	0.981	0.91	0.999	0.963	0.971	1.04	1.07
IA-LM	–	–	–	–	–	0.566	0.398	0.284	0.315	0.776	0.442	0.246	0.186	0.813	1.05	0.886	0.915	0.886
NCI-H1648	–	0.628	0.358	0.427	0.53	–	–	–	–	0.729	0.961	0.904	0.797	0.661	0.966	0.94	0.822	0.791
NCI-H1703	–	–	–	–	–	1.12	0.875	1.29	1.1	0.974	0.816	0.9	0.909	0.869	0.953	0.917	0.99	0.788
NCI-H650	0.875	0.995	0.892	0.892	0.963	–	–	–	–	1.1	1.09	1.39	1.26	0.934	1.05	0.876	1.1	0.855
A549	–	–	–	–	–	0.945	0.904	0.734	0.596	0.864	0.669	0.656	0.449	0.984	0.99	0.994	0.969	0.937
NCI-H522	0.716	0.747	0.674	0.728	0.655	–	–	–	–	0.896	0.957	1.02	0.927	0.955	1.02	0.976	0.988	0.982
NCI-H1623	–	–	–	–	–	–	–	–	–	0.85	0.83	0.79	0.714	0.951	1.02	0.96	1.01	1.02
SW 900	0.853	0.711	0.824	0.761	0.657	–	–	–	–	0.805	0.776	0.79	0.809	0.795	0.954	0.716	0.878	0.836
NCI-H358	0.117	0.14	0.106	0.126	0.135	–	–	–	–	0.618	0.456	0.373	0.31	1.04	0.916	0.898	0.975	0.863
EBC-1	–	–	–	–	–	0.225	0.19	0.193	0.138	0.959	0.828	0.759	0.523	0.961	1.05	0.961	0.926	0.894
